In patent US9399626B2, “2-thiopyrimidinones” (Pfizer Inc., priority 2011, dated 2016):
Structures can show the parent of a compound that is named as a salt.

The compounds below were run against T1, MPO (purified from human polynuclear leukocytes) (Homo sapiens, UniProt P05164) (assay: MPO Amplex Red Activity Assay). Conditions: Table 1, 2 μM H2O2, pH 7.4.
T1 construct: purified from human polynuclear leukocytes; purchased Calbiochem/EMD Biosciences; host or cells: human polynuclear leukocytes (natural source)
Format: biochemical
Procedure, shortened: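 Potency is given as kinact/KI: kobs values from 600 s progress curves, minus the uninhibited rate, are fit against inhibitor concentration. Reactions use 2 μM H2O2, 30 μM Amplex Red, pH 7.4 phosphate buffer with NaCl, DTPA and 2% DMSO, started with […] human MPO. Readout is resorufin fluorescence, catalase background subtracted.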

T1 sequence (P05164 279-745 limits assumed): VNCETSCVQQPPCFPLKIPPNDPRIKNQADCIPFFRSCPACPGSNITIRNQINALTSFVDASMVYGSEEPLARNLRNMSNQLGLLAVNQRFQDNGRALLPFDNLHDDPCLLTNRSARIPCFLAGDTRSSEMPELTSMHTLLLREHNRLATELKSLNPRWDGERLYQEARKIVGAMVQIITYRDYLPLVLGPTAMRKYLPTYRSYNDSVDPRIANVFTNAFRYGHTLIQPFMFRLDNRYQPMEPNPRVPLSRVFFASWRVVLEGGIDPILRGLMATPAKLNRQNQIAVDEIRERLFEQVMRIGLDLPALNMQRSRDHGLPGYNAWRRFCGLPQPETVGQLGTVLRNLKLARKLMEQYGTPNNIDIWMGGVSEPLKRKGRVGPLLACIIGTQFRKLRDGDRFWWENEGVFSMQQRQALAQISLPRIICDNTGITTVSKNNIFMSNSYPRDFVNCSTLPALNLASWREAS
T1 sequence (P05164 165-273 limits assumed): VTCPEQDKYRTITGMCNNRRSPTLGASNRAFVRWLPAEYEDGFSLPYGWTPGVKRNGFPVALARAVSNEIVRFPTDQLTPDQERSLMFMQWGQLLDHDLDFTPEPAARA

Row | MPO kinact/Ki | Compound
1 | 1070 1/s per M | COCCn1c(-c2ncc[nH]2)cc(=O)[nH]c1=S [Example 154, 6-(1H-imidazol-2-yl)-1-(2-methoxyethyl)-2-thioxo-2,3-dihydropyrimidin-4(1H)-one]
2 | 2200 1/s per M | COCCn1c(-c2cc(Cl)cnc2OC)cc(=O)[nH]c1=S [Example 96, 6-(5-chloro-2-methoxypyridin-3-yl)-1-(2-methoxyethyl)-2-thioxo-2,3-dihydropyrimidin-4(1H)-one]
3 | 1080 1/s per M | COCCn1c(-c2ccc(Cl)cc2)cc(=O)[nH]c1=S [Example 298, 6-(4-chlorophenyl)-1-(2-methoxyethyl)-2-thioxo-2,3-dihydropyrimidin-4(1H)-one]
4 | 6500 1/s per M | COc1cc(-c2cc(=O)[nH]c(=S)n2CC(N)=O)c(OC)cc1C [Example 147, 2-[6-(2,5-dimethoxy-4-methylphenyl)-4-oxo-2-thioxo-3,4-dihydropyrimidin-1(2H)-yl]acetamide]
5 | 2460 1/s per M | COCCn1c(-c2cccc(Cl)c2)cc(=O)[nH]c1=S [Example 300, 6-(3-chlorophenyl)-1-(2-methoxyethyl)-2-thioxo-2,3-dihydropyrimidin-4(1H)-one]
6 | 2800 1/s per M | COCCn1c(-c2cccc3cccnc23)cc(=O)[nH]c1=S [Example 322, 1-(2-methoxyethyl)-6-quinolin-8-yl-2-thioxo-2,3-dihydropyrimidin-4(1H)-one]
7 | 18700 1/s per M | COc1cc(OC)c(-c2cc(=O)[nH]c(=S)n2CCCN)cc1Cl [Example 129, 1-(3-aminopropyl)-6-(5-chloro-2,4-dimethoxyphenyl)-2-thioxo-2,3-dihydropyrimidin-4(1H)-one hydrochloride]
8 | 8970 1/s per M | COc1ccc(-c2cc(=O)[nH]c(=S)n2CCOC(=O)CN)c(OC)c1 [Example 244, 2-[6-(2,4-dimethoxyphenyl)-4-oxo-2-thioxo-3,4-dihydropyrimidin-1(2H)-yl]ethyl glycinate tosylate]
9 | 8090 1/s per M | COc1cccc(-c2cc(=O)[nH]c(=S)n2CCO)c1 [Example 155, 1-(2-hydroxyethyl)-6-(3-methoxyphenyl)-2-thioxo-2,3-dihydropyrimidin-4(1H)-one]
10 | 3530 1/s per M | COc1ccc(-c2cc(=O)[nH]c(=S)n2CCN)c(Cl)c1 [Example 61, 1-(2-aminoethyl)-6-(2-chloro-4-methoxyphenyl)-2-thioxo-2,3-dihydropyrimidin-4(1H)-one hydrochloride]
11 | 10900 1/s per M | COc1ccc(-c2cc(=O)[nH]c(=S)n2CCN=C(N)N)c(OC)c1 [Example 7, 2-(2-(6-(2,4-dimethoxyphenyl)-4-oxo-2-thioxo-3,4-dihydropyrimidin-1(2H)-yl)ethyl)guanidine]
12 | 29300 1/s per M | COc1ccc(-c2cc(=O)[nH]c(=S)n2CCO)c(OC)c1 [Example 3, 6-(2,4-Dimethoxyphenyl)-1-(2-hydroxyethyl)-2-thioxo-2,3-dihydropyrimidin-4(1H)-one]
13 | 2890 1/s per M | CCOC(=O)Cn1c(-c2cc(OC)c(OC)cc2OC)cc(=O)[nH]c1=S [Example 139, ethyl[4-oxo-2-thioxo-6-(2,4,5-trimethoxyphenyl)-3,4-dihydropyrimidin-1(2H)-yl]acetate]
14 | 793 1/s per M | COCCn1c(-c2ccc(OC)nc2)cc(=O)[nH]c1=S [Example 295, 1-(2-methoxyethyl)-6-(6-methoxypyridin-3-yl)-2-thioxo-2,3-dihydropyrimidin-4(1H)-one]
15 | 1330 1/s per M | COCCn1c(-c2ncccc2OC)cc(=O)[nH]c1=S [Example 20, 1-(2-methoxyethyl)-6-(3-methoxypyridin-2-yl)-2-thioxo-2,3-dihydropyrimidin-4(1H)-one]
16 | 9360 1/s per M | COc1ccc(-c2cc(=O)[nH]c(=S)n2CCCN)c(Cl)c1 [Example 91, 1-(3-aminopropyl)-6-(2-chloro-4-methoxyphenyl)-2-thioxo-2,3-dihydropyrimidin-4(1H)-one hydrochloride]
17 | 2420 1/s per M | COc1ccc(-c2cc(=O)[nH]c(=S)n2CCCN(C)C)c(OC)c1 [Example 220, 6-(2,4-dimethoxyphenyl)-1-[3-(dimethylamino)propyl]-2-thioxo-2,3-dihydropyrimidin-4(1H)-one]
18 | 5210 1/s per M | COCCn1c(-c2cc(OC)cc(OC)c2)cc(=O)[nH]c1=S [Example 330, 6-(3,5-dimethoxyphenyl)-1-(2-methoxyethyl)-2-thioxo-2,3-dihydropyrimidin-4(1H)-one]
19 | 3630 1/s per M | COCCn1c(-c2cc3ccccc3[nH]2)cc(=O)[nH]c1=S [Example 302, 6-(1H-indol-2-yl)-1-(2-methoxyethyl) 2-thioxo-2,3-dihydropyrimidin-4(1H)-one]

Second part, the compound before the results:

Row | Compound | MPO kinact/Ki
20 | COc1ccc(-c2cc(=O)[nH]c(=S)n2CC2CCCN2)c(OC)c1 (stereo not shown) [Example 211, 6-(2,4-dimethoxyphenyl)-1-(pyrrolidin-2-ylmethyl)-2-thioxo-2,3-dihydropyrimidin-4(1H)-one hydrochloride] | 6090 1/s per M
21 | COc1ccc(-c2cc(=O)[nH]c(=S)n2CC2CCCN2C(=O)CN)c(OC)c1 (stereo not shown) [Example 262, 6-(2,4-dimethoxyphenyl)-1-[(1-glycylpyrrolidin-2-yl)methyl]-2-thioxo-2,3-dihydropyrimidin-4(1H)-one hydrochloride] | 1730 1/s per M
22 | O=c1cc(-c2ccccc2OCCO)n(CCO)c(=S)[nH]1 [Example 168, 6-[2-(2-hydroxyethoxy)phenyl]-1-(2-hydroxyethyl)-2-thioxo-2,3-dihydropyrimidin-4(1H)-one] | 8890 1/s per M
23 | NCCn1c(-c2ccc3c(c2)CCO3)cc(=O)[nH]c1=S [Example 14, 1-(2-aminoethyl)-6-(2,3-dihydro-1-benzofuran-5-yl)-2-thioxo-2,3-dihydropyrimidin-4(1H)-one hydrochloride] | 5310 1/s per M
24 | O=c1cc(-c2csc3ccccc23)n(CCO)c(=S)[nH]1 [Example 39, 6-(1-benzothien-3-yl)-1-(2-hydroxyethyl)-2-thioxo-2,3-dihydropyrimidin-4(1H)-one] | 4520 1/s per M
25 | COc1ccc(Cl)cc1-c1cc(=O)[nH]c(=S)n1C[C@H](O)CN [Example 114, 1-[(2R)-3-amino-2-hydroxypropyl]-6-(5-chloro-2-methoxyphenyl)-2-thioxo-2,3-dihydropyrimidin-4(1H)-one trifluoroacetate] | 9770 1/s per M
26 | COc1ccc(-c2cc(=O)[nH]c(=S)n2C[C@H]2CCCN2)c(OC)c1 [Example 267, 6-(2,4-dimethoxyphenyl)-1-[(2R)-pyrrolidin-2-ylmethyl]-2-thioxo-2,3-dihydropyrimidin-4(1H)-one hydrochloride] | 3840 1/s per M
27 | COc1ccccc1-c1cc(=O)[nH]c(=S)n1CCN [Example 11, 1-(2-aminoethyl)-6-(2-methoxyphenyl)-2-thioxo-2,3-dihydropyrimidin-4(1H)-one hydrochloride] | 6880 1/s per M
28 | COc1cccc(OC)c1-c1cc(=O)[nH]c(=S)n1C [Example 157, 6-(2,6-dimethoxyphenyl)-1-methyl-2-thioxo-2,3-dihydropyrimidin-4(1H)-one] | 7320 1/s per M

Same assay, conditions: Table 1A, 2 μM H2O2, pH 7.4

Row | MPO kinact/Ki | Compound
29 | 1970 1/s per M | COc1ccc(-c2cc(=O)[nH]c(=S)n2CCNCCN)c(OC)c1 [Example 381, 1-{2-[(2-aminoethyl)amino]ethyl}-6-(2,4-dimethoxyphenyl)-2-thioxo-2,3-dihydropyrimidin-4(1H)-one]
30 | 1540 1/s per M | COc1ccc(-c2cc(=O)[nH]c(=S)n2CCO)cc1OC [Example 355, 6-(3,4-dimethoxyphenyl)-1-(2-hydroxyethyl)-2-thioxo-2,3-dihydropyrimidin-4(1H)-one]

Further lines, the compound ahead of its results:

Row | Compound | MPO kinact/Ki
31 | COc1ccc(Cl)cc1-c1cc(=O)[nH]c(=S)n1CC(=O)NC(=N)N [Example 376, N-carbamidoyl-2-[6-(5-chloro-2-methoxyphenyl)-4-oxo-2-thioxo-3,4-dihydropyrimidin-1(2H)-yl]acetamide] | 7870 1/s per M
32 | NCCNC(=O)Cn1c(-c2cc(F)ccc2OCCO)cc(=O)[nH]c1=S [Example 405, N-(2-aminoethyl)-2-{6-[5-fluoro-2-(2-hydroxyethoxy)phenyl]-4-oxo-2-thioxo-3,4-dihydropyrimidin-1(2H)-yl}acetamide] | 5970 1/s per M
33 | COc1ccc(-c2cc(=O)[nH]c(=S)n2CC(=O)N[C@H]2C[C@H](N)C2)c(OC)c1 [Example 437, N-(trans-3-aminocyclobutyl)-2-[6-(2,4-dimethoxyphenyl)-4-oxo-2-thioxo-3,4-dihydropyrimidin-1(2H)-yl]acetamide] | 3400 1/s per M
34 | N=C(N)NCCn1c(-c2cc(Cl)ccc2OCCO)cc(=O)[nH]c1=S [Example 448, 1-(2-{6-[5-chloro-2-(2-hydroxyethoxy)phenyl]-4-oxo-2-thioxo-3,4-dihydropyrimidin-1(2H)-yl}ethyl)guanidine] | 6490 1/s per M
35 | COc1ccc(Cl)cc1-c1cc(=O)[nH]c(=S)n1CCCNS(C)(=O)=O [Example 353, N-{3-[6-(5-chloro-2-methoxyphenyl)-4-oxo-2-thioxo-3,4-dihydropyrimidin-1(2H)-yl]propyl}methanesulfonamide] | 11000 1/s per M
36 | COc1cc(OCCO)ccc1-c1cc(=O)[nH]c(=S)n1CC(N)=O [Example 387, 2-{6-[4-(2-hydroxyethoxy)-2-methoxyphenyl]-4-oxo-2-thioxo-3,4-dihydropyrimidin-1(2H)-yl}acetamide] | 4720 1/s per M
37 | COc1ccc(C)cc1-c1cc(=O)[nH]c(=S)n1CC(=O)NCCN [Example 373, N-(2-aminoethyl)-2-[6-(2-methoxy-5-methylphenyl)-4-oxo-2-thioxo-3,4-dihydropyrimidin-1(2H)-yl]acetamide] | 12800 1/s per M
